Data: patent US10934303B2, “Aryl ethene derivative and pharmaceutical composition containing same as active ingredient” (priority 2016, dated 2021)

Columns and labels:
ERRγ = assay type: cell-based; settings: for Functional Assay at 10 μM (% of control), Cpds: 24 hours, AD293; for Functional Assay, Cpds/Ref 5182: activity relative to reference compound GSK5182, 10 μM
Protocol: AD293 was cultured in a 24-well plate for 24 hours, using a DMEM High glucose culture medium (Hyclone, USA) to which 0.5% FBS was added at a concentration of 9×10^4/well. The culture medium was replaced with a DMEM High glucose culture medium to which 10% FBS was added, treatment was performed with a mixture of a TransIT-LT1 transfection reagent (Mirus, USA) and pCMX-Gal4-ERRγ, pFR-luciferase reporter plasmid, pCMV-β-gal, and culturing was performed for 24 hours. Thereafter, a luciferase activity assay and a β-gal assay were performed, respectively, with a lysate obtained after treatment with the arylethene derivative of the present invention for 24 hours. All results were derived from three or more independent repetitive experiments.

[1] = 1 μM, 30 minutes, 37° C., NADPH
Protocol: 2) Microsomal Stability Evaluation
(§2) Four liver microsomes (Human, Dog, Rat, Mouse 0.5 mg/ml) with a 0.1 M phosphate buffer solution (pH 7.4), and the arylethene derivative of the present invention were added to a concentration of 1 μM, culturing was performed at 37° C. for 5 minutes in advance, a NADPH regeneration system solution was added thereto, and culturing was performed at 37° C. for 30 minutes. Thereafter, in order to complete the reaction, an acetonitrile solution containing an internal standard material (chlorpropamide) was added thereto, centrifugation (14,000 rpm, 4° C.) was performed for 5 minutes, and a supernatant was injected into a LC-MS/MS system to analyze the substrate drug, thereby evaluating metabolism stability to the arylethene derivative of the present invention.

[2] = 1 μM, 30 minutes, 37° C., NADPH; remark: listed apart in the source
Protocol: 2) Microsomal Stability Evaluation
as §2

CYP1A2 = CYP1A2 (Homo sapiens (Human), UniProt P05177); experiment: Cytochrome P450 activity inhibition, CYP1A2; assay type: in vitro ADME; settings: 10 μM, human liver microsomes, Phenacetin substrate
Sequence of CYP1A2 (P05177 whole entry): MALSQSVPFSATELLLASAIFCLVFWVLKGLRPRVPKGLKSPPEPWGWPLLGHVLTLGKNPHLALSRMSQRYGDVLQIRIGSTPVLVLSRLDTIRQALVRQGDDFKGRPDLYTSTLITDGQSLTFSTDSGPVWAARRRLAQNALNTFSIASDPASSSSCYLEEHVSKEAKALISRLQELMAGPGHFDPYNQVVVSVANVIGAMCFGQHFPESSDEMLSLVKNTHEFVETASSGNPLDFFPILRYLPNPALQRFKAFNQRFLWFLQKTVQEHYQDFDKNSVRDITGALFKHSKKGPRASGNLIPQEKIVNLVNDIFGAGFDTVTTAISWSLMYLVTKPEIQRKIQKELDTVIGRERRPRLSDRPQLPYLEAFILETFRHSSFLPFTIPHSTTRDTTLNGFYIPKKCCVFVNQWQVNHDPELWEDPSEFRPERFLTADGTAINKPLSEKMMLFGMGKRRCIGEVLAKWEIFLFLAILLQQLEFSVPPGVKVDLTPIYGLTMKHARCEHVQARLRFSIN
Source text: (§1) 1) Cytochrome P450 (CYP450) Activity Inhibition Evaluation

CYP2C9 = CYP2C9 (Homo sapiens (Human), UniProt P11712); experiment: Cytochrome P450 activity inhibition, CYP2C9; assay type: in vitro ADME; settings: 10 μM, human liver microsomes, Diclofenac substrate
Sequence of CYP2C9 (P11712 whole entry): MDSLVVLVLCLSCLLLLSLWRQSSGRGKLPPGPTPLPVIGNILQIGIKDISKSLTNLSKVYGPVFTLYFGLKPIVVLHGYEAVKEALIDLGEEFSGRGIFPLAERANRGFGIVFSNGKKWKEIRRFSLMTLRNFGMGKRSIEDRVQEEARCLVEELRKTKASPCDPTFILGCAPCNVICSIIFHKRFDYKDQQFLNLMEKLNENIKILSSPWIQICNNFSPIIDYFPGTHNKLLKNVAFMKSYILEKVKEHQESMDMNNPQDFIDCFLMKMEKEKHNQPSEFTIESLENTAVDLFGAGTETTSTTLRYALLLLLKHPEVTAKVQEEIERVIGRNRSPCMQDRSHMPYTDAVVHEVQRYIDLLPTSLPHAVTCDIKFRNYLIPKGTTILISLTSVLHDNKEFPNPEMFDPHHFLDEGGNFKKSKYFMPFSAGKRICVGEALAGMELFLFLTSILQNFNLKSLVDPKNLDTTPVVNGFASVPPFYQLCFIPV
Source text: as §1

CYP2D6 = CYP2D6 (Homo sapiens (Human), UniProt P10635); experiment: Cytochrome P450 activity inhibition, CYP2D6; assay type: in vitro ADME; settings: 10 μM, human liver microsomes, Dextromethorphan substrate
Sequence of CYP2D6 (P10635 whole entry): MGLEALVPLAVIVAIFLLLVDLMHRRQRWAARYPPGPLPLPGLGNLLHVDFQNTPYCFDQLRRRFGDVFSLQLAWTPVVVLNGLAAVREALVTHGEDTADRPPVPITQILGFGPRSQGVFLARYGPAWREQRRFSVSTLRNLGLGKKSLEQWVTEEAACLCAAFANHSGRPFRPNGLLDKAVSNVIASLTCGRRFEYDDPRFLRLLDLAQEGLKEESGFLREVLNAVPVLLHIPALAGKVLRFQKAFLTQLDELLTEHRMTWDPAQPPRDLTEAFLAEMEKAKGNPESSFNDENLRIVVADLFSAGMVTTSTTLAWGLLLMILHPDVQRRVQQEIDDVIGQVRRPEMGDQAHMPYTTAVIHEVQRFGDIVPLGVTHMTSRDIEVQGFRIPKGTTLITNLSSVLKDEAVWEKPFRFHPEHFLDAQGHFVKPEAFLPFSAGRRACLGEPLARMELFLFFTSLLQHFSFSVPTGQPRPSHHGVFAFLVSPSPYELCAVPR
Source text: as §1

in vitro = in vitro ADME; design: Papp at 5 h: dose or concentration left out as unconfirmed; settings: PBS pH 7.4, 25° C.; for Papp at 5 h: PAMPA, read-out: Permeability Pampa; for Permeability Pampa: 5 hours
Protocol: 3) Parallel Artificial Membrane Permeability Assay (PAMPA) Evaluation
PAMPA is a method which has been developed for testing cell membrane permeability of a material in a test tube, and has been performed using a lipid tri-layer PVDF membrane available from Corning Gentest (NY, US), the used reagents were all purchased from Sigma (MO, US). First, a test material is diluted in PBS (pH 7.4) to a final concentration of 10 mM, 300 mL of the solution is added to the bottom well of a 96-transwell equipped with a PVDF membrane, and 200 mL of PBS is added to the upper well. Then, a plate is reacted at 25° C. for 5 hours, 20 mL of the solution in each well is transferred to a new container, and 80 mL of acetonitrile containing an internal standard material (4 mM chloropropamide) is added thereto. A concentration of the material in the solution is analyzed using LC-MS/MS (ThermoFisher Scientific, MO, US), and the transmittance of the material is calculated according to the equation reported in the reference document.

CYP2C19 = CYP2C19 (Homo sapiens (Human), UniProt P33261); experiment: Cytochrome P450 activity inhibition, CYP2C19; assay type: in vitro ADME; settings: 10 μM, human liver microsomes, S-mephenytoin substrate
Sequence of CYP2C19 (P33261 whole entry): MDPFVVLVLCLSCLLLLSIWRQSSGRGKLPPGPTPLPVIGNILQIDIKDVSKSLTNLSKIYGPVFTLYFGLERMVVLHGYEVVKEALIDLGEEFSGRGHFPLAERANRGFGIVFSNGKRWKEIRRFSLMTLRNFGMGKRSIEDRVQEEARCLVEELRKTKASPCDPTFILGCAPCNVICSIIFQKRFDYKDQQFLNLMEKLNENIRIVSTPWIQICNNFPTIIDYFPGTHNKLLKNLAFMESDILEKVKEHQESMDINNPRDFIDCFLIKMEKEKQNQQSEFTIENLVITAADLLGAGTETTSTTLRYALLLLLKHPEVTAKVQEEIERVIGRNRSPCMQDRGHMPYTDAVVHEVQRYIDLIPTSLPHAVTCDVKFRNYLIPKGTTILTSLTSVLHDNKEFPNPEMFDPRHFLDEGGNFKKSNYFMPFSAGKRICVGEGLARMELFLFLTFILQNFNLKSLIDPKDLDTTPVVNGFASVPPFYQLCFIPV
Source text: as §1

CYP3A4 = CYP3A4 (Homo sapiens (Human), UniProt P08684); experiment: Cytochrome P450 activity inhibition, CYP3A4; assay type: in vitro ADME; settings: 10 μM, human liver microsomes, Midazolam substrate
Sequence of CYP3A4 (P08684 whole entry): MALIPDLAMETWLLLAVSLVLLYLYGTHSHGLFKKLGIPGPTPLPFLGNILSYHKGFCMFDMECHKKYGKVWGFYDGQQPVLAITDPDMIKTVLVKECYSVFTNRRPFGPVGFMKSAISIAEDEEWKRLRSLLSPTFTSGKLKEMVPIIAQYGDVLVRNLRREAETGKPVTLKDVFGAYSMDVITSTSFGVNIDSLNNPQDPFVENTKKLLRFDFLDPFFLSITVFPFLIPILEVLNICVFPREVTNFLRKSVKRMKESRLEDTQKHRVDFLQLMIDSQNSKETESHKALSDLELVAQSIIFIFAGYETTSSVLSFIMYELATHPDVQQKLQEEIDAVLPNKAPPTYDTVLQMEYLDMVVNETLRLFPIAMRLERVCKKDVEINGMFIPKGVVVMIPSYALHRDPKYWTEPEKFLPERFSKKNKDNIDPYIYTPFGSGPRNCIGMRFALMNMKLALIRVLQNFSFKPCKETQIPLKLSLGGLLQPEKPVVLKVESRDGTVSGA
Source text: as §1

in vivo = assay type: in vivo; settings: rat, IV, 1 mg/kg

Row | SMILES | Functional Assay at 10 μM (% of control), Cpds (ERRγ) | Functional Assay, Cpds/Ref 5182 (ERRγ) | MS(Microsomal Stability) (%) human [1] | MS(Microsomal Stability) (%) rat [2] | also measured
1 | CN1CCN(CCOc2ccc(/C(=C(/CCCO)c3ccccc3)c3ccc(O)cc3)cc2)CC1 [Compound 6b] | 7.97 % of control | 2.59 |  |  | 
2 | OCCC/C(=C(\c1ccc(O)cc1)c1ccc(OCCN2CCOCC2)cc1)c1ccccc1 [Compound 6c] | 4.64 % of control | 1.51 | 128.0% | 45.2% | 
3 | CN1C[C@@H]1CCCOc1ccc(/C(=C(/CCCO)c2ccccc2)c2ccc(Br)cc2)cc1 (stereo partly drawn) [Compound 13c] | 10.58 % of control | 3.36 |  |  | 
4 | CN1CCCC1CCOc1ccc(/C(=C(/CCCO)c2ccccc2)c2ccc(Br)cc2)cc1 (stereo not drawn) [Compound 13d] |  |  | 67.3% | 59.9% | CYP inhibition (% of control) 1A2 (CYP1A2): >100 % of control; CYP inhibition (% of control) 2C9 (CYP2C9): 97 % of control; CYP inhibition (% of control) 2D6 (CYP2D6): >100 % of control; Papp at 5 h (in vitro): 0.14 ×10⁻⁶ cm/s
5 | CC(C)(C)OC(=O)N1CCN(c2ccc(/C(=C(/CCCO)c3ccccc3)c3ccc(O)cc3)cc2)CC1 [Compound 18m] | 2.97 % of control | 1.01 |  |  | 
6 | OCCC/C(=C(\c1ccc(O)cc1)c1ccc(N2CCOCC2)cc1)c1ccccc1 [Compound 18o] | 23.2 % of control | 2.33 |  |  | 
7 | CC(C)(C)OC(=O)N1CC(c2ccc(/C(=C(/CCCO)c3ccccc3)c3ccc(O)cc3)cc2)C1 [Compound 18t, tert-butyl (E)-3-(4-(5-hydroxy-1-(4-hydroxyphenyl)-2-phenylpent-1-en-1-yl)phenyl)azetidine-1-carboxylate] | 11.1 % of control | 1.11 | 66.9% | 80.5% | CYP inhibition (% of control) 1A2 (CYP1A2): 100 % of control; CYP inhibition (% of control) 2C9 (CYP2C9): 83 % of control; CYP inhibition (% of control) 2C19 (CYP2C19): 93 % of control; CYP inhibition (% of control) 2D6 (CYP2D6): 98 % of control
8 | CN(C)CCn1cc(-c2ccc(/C(=C(/CCCO)c3ccccc3)c3ccc(O)cc3)cc2)nn1 [Compound 18u] | 5.33 % of control | 5.61 |  |  | 
9 | OCCC/C(=C(\c1ccc(Br)cc1)c1ccc(N2CCNCC2)cc1)c1ccccc1 [Compound 20a, (E)-5-(4-bromophenyl)-4-phenyl-5-(4-(piperazin-1-yl)phenyl)pent-4-en-1-ol] | 3.15 % of control |  | 65.1% | 84.7% | CYP inhibition (% of control) 1A2 (CYP1A2): 85 % of control; CYP inhibition (% of control) 2C9 (CYP2C9): 76 % of control; CYP inhibition (% of control) 3A4 (CYP3A4): 55 % of control
10 | OCCC/C(=C(\c1ccc(O)cc1)c1ccc(N2CCNCC2)cc1)c1ccccc1 [Compound 20c] | 2.72 % of control | 0.93 | 55.8% | 53.7% | 
11 | OCCC/C(=C(\c1ccc(O)cc1)c1ccc(C2CNC2)cc1)c1ccccc1 [Compound 20e] |  |  | 78.1% | 82.1% | AUCINF (in vivo): 0.34 μMh; AUCall (in vivo): 0.28 μMh; Vss (in vivo): 52.8 L/kg; t1/2 (in vivo): 4.4 h
12 | OCCC/C(=C(\c1ccc(Br)cc1)c1ccc(C2CNC2)cc1)c1ccccc1 [Compound 20f] |  |  | 83.9% | 99.5% | Permeability Pampa (in vitro): 0.14 10^−6 cm/s
13 | CN1CCC(c2ccc(/C(=C(/CCCO)c3ccccc3)c3cccc(O)c3)cc2)CC1 [Compound 22ac] |  |  |  |  | CYP inhibition (% of control) 1A2 (CYP1A2): >100 % of control; CYP inhibition (% of control) 2C9 (CYP2C9): >100 % of control; CYP inhibition (% of control) 2C19 (CYP2C19): >100 % of control; CYP inhibition (% of control) 2D6 (CYP2D6): 86.2 % of control; CYP inhibition (% of control) 3A4 (CYP3A4): 85 % of control
14 | Cc1ccc(/C(=C(\CCCO)c2ccccc2)c2ccc(C3CN(C(C)C)C3)cc2)cc1 [Compound 22e] |  |  |  |  | CYP inhibition (% of control) 1A2 (CYP1A2): 94.9 % of control; CYP inhibition (% of control) 2C9 (CYP2C9): 61.3 % of control; CYP inhibition (% of control) 2C19 (CYP2C19): 58.4 % of control; CYP inhibition (% of control) 2D6 (CYP2D6): 71.8 % of control; CYP inhibition (% of control) 3A4 (CYP3A4): 58.2 % of control; Permeability Pampa (in vitro): 6.16 10^−6 cm/s
15 | CC(C)N1CCN(c2ccc(/C(=C(/CCCO)c3ccccc3)c3ccc(OS(C)(=O)=O)cc3)cc2)CC1 [Compound 28a, (E)-4-(5-hydroxy-1-(4-(4-isopropylpiperazin-1-yl)phenyl)-2-phenylpent-1-en-1-yl)phenyl methanesulfonate] | 1.14 % of control | 1.20 |  |  | 
16 | CC(C)N1CCN(c2ccc(/C(=C(/CCCO)c3ccccc3)c3ccc(OS(=O)(=O)C(F)(F)F)cc3)cc2)CC1 [Compound 28d] | 1.69 % of control | 1.78 |  |  | 
17 | CN1CCN(c2ccc(/C(=C(/CCCO)c3ccccc3)c3ccc(OC(=O)C(C)(C)C)cc3)cc2)CC1 [Compound 28e] | 4.76 % of control | 1.16 | 56.4% | 59.6% | 
18 | CN1CCN(c2ccc(/C(=C(/CCCOC(=O)C(C)(C)C)c3ccccc3)c3ccc(O)cc3)cc2)CC1 [Compound 28f] | 4 % of control | 0.98 |  |  | 
19 | CN1CCN(c2ccc(/C(=C(/CCCOC(=O)C(C)(C)C)c3ccccc3)c3ccc(OC(=O)C(C)(C)C)cc3)cc2)CC1 [Compound 28g] | 5.1 % of control | 1.25 |  |  | 
20 | CN1CCN(Cc2ccc(/C(=C(/CCCO)c3ccccc3)c3ccc(O)cc3)cc2)CC1 [Compound 30a, (E)-4-(5-hydroxy-1-(4-((4-methylpiperazin-1-yl)methyl)phenyl)-2-phenylpent-1-en-1-yl)phenol] | 2.94 % of control | 3.09 |  |  | 
21 | OCCC/C(=C(\c1ccc(O)cc1)c1ccc(OCCN2C[C@H]3CNC[C@H]3C2)cc1)c1ccccc1 [Compound 40, 4-((Z)-1-(4-(2-((3 aR,6aS)-hexahydropyrrolo[3,4-c]pyrrol-2(1H)-yl)ethoxy)phenyl)-5-hydroxy-2-phenylpent-1-en-1-yl)phenol] | 2.8 % of control | 0.96 | 64.7% | 72.0% | 
22 | CN1CCN(C[Si](C)(C)c2ccc(/C(=C(/CCCO)c3ccccc3)c3ccc(O)cc3)cc2)CC1 [Compound 42a, (Z)-4-(1-(4-(dimethyl((4-methylpiperazin-1-yl)methyl)silyl)phenyl)-5-hydroxy-2-phenylpent-1-en-1-yl)phenol] | 4.37 % of control | 1.49 |  |  | 
23 | C[Si](C)(CN1CCCCC1)c1ccc(/C(=C(/CCCO)c2ccccc2)c2ccc(O)cc2)cc1 [Compound 42b] | 11.6 % of control | 1.16 |  |  | Papp at 5 h (in vitro): 0.1 ×10⁻⁶ cm/s
24 | C[Si](C)(CN1CCCC1)c1ccc(/C(=C(/CCCO)c2ccccc2)c2ccc(O)cc2)cc1 [Compound 42c] | 2.6 % of control | 0.89 |  |  | 
25 | C[Si](C)(CC1CCNCC1)c1ccc(/C(=C(/CCCO)c2ccccc2)c2ccc(O)cc2)cc1 [Compound 42d] | 11.7 % of control | 3.99 |  |  | 
26 | C[Si](C)(CN1C[C@H]2CNC[C@H]2C1)c1ccc(/C(=C(/CCCO)c2ccccc2)c2ccc(O)cc2)cc1 [Compound 42e] | 26.04 % of control | 6.37 |  |  | 
27 | O=C(CN1CCCCC1)Nc1ccc(/C(=C(/CCCO)c2ccccc2)c2ccc(O)cc2)cc1 [Compound 44, (E)-N-(4-(5-hydroxy-1-(4-hydroxyphenyl)-2-phenylpent-1-en-1-yl)phenyl)-2-(piperidin-1-yl)acetamide] | 12.94 % of control | 3.16 |  |  | 
28 | OCCC/C(=C(\c1ccc(O)cc1)c1ccc(NCCN2CCCCC2)cc1)c1ccccc1 [Compound 45, (E)-4-(5-hydroxy-2-phenyl-1-(4-((2-(piperidin-1-yl)ethyl)amino)phenyl)pent-1-en-1-yl)phenol] | 1.58 % of control | 1.55 |  |  | 
29 | C[C@@]12CNC[C@]1(C)CN(CC(=O)Nc1ccc(/C(=C(/CCCO)c3ccccc3)c3ccc(O)cc3)cc1)C2 [Compound 46, 2-((3aR,6aS)-3a,6a-dimethylhexahydropyrrolo[3,4-c]pyrrol-2(1H)-yl)-N-(4-((E)-5-hydroxy-1-(4-hydroxyphenyl)-2-phenylpent-1-en-1-yl)phenyl)acetamide] | 78.46 % of control | 24.91 |  |  | 
